Target: T1, mutant G12C K-RAS (Homo sapiens, UniProt P01116, G12C)
T1 construct: made in house; host or cells: E. coli BL21
Test: covalent adduct formation (CAF) with mutant G12C K-RAS
Type: binding
Parameters: CAF: unit not given here
Conditions: for % CAF @ 10 μM,1 h: Table 6; for % CAF (60 min) / CAF: after 60 minutes at 10 micromolar; for CAF: Table 3, Pyridone Core-Morpholine Unsubstituted
Method: Embodiments disclosed herein are further illustrated by the following examples in Tables 1-4 and the Examples hereinbelow. The Tables indicate the compound number, structure, the observed mass spectral molecular weight peak, and covalent adduct formation (CAF) with a mutant G12C K-RAS after 60 minutes at a concentration of 10 micromolar.

C=CC(=O)N1C[C@H](C)N(c2nc(=O)n3c4c(c(-c5ccc(F)cc5F)c(Cl)cc24)OC[C@@H]3CN2CCOCC2)C[C@H]1C [Example 203, (3S)-7-((2S,5R)-4-acryloyl-2,5-dimethylpiperazin-1-yl)-9-chloro-10-(2,4-difluorophenyl)-3-(morpholinomethyl)-2H-[1,4]oxazino[2,3,4-ij]quinazolin-5(3H)-one]
% CAF @ 10 μM,1 h: 84.3%

C=CC(=O)N1C[C@H](C)N(c2nc(=O)n3c4c(c(-c5c(O)cccc5F)c(Cl)cc24)OC[C@@H]3CO)C[C@H]1C [Example 26, (3S)-7-((2S,5R)-4-acryloyl-2,5-dimethylpiperazin-1-yl)-9-chloro-10-(2-fluoro-6-hydroxyphenyl)-3-(hydroxymethyl)-2H-[1,4]oxazino[2,3,4-ij]quinazolin-5(3H)-one]
% CAF (60 min) (Table 2, Pyrimidone Core-Morpholine Substituted): 81.9%

C=CC(=O)N1C[C@H](C)N(c2nc(=O)n3c4c(c(-c5c(C)ccc6[nH]ncc56)c(Cl)cc24)OC[C@H]3CCCN2C[C@@H]3C[C@H]2CO3)C[C@H]1C (atropisomer, axis not shown) [Example 325, (3R,10S)-3-(3-((1S,4S)-2-oxa-5-azabicyclo[2.2.1]heptan-5-yl)propyl)-7-((2S,5R)-4-acryloyl-2,5-dimethylpiperazin-1-yl)-9-chloro-10-(5-methyl-1H-indazol-4-yl)-2,3-dihydro-5H-[1,4]oxazino[2,3,4-ij]quinazolin-5-one]
% CAF @ 10 μM,1 h: 0%

C=CC(=O)N1CCN(c2nc(=O)n3c4c(c(-c5c(O)cccc5F)c(Cl)cc24)OC[C@@H]3CN2CCC(F)(F)C2)[C@@H](C)C1 (atropisomer, axis not shown) [Example 229, (3S,10R)-7-((S)-4-acryloyl-2-methylpiperazin-1-yl)-9-chloro-3-((3,3-difluoropyrrolidin-1-yl)methyl)-10-(2-fluoro-6-hydroxyphenyl)-2,3-dihydro-5H-[1,4]oxazino[2,3,4-ij]quinazolin-5-one]
% CAF @ 10 μM,1 h: 1.6%

C=CC(=O)N1CCN(c2nc(=O)n3c4c(c(-c5c(O)cccc5F)c(Cl)cc24)OC[C@H]3CN2CCOCC2)[C@@H](C)C1 [Example 199, (3R,10R)-7-((S)-4-acryloyl-2-methylpiperazin-1-yl)-9-chloro-10-(2-fluoro-6-hydroxyphenyl)-3-(morpholinomethyl)-2,3-dihydro-5H-[1,4]oxazino[2,3,4-ij]quinazolin-5-one]
% CAF @ 10 μM,1 h: 0%

C=CC(=O)N1C[C@H](C)N(c2nc(=O)n3c4c(c(-c5ccc(F)cc5F)c(Cl)cc24)OC[C@@H]3CN2CCC2)C[C@H]1C [Example 232, (3S)-7-((2S,5R)-4-acryloyl-2,5-dimethylpiperazin-1-yl)-3-(azetidin-1-ylmethyl)-9-chloro-10-(2,4-difluorophenyl)-2H-[1,4]oxazino[2,3,4-ij]quinazolin-5(3H)-one]
% CAF @ 10 μM,1 h: 82.4%

C=CC(=O)N1CCN(c2nc(=O)n3c4c(c(-c5c(C)ccc6[nH]nc(C)c56)c(Cl)cc24)OCC3)CC1 [Example 9, 7-(4-acryloylpiperazin-1-yl)-9-chloro-10-(3,5-dimethyl-1H-indazol-4-yl)-2H-[1,4]oxazino[2,3,4-ij]quinazolin-5(3H)-one]
% CAF (60 min) (Table 1, Pyrimidone Core-Morpholine Unsubstituted): 72.6%

C=CC(=O)N1C[C@H](C)N(c2nc(=O)n3c4c(c(-c5ccc(F)cc5F)c(Cl)cc24)OC[C@@H]3CCCO)C[C@H]1C [Example 250, (3S)-7-((2S,5R)-4-acryloyl-2,5-dimethylpiperazin-1-yl)-9-chloro-10-(2,4-difluorophenyl)-3-(3-hydroxypropyl)-2,3-dihydro-5H-[1,4]oxazino[2,3,4-ij]quinazolin-5-one]
% CAF @ 10 μM,1 h: 70.1%

C=CC(=O)N1C[C@H](C)N(c2nc(=O)n3c4c(c(-c5c(O)cccc5F)c(Cl)cc24)OC[C@@H]3Cn2cccn2)C[C@H]1C (atropisomer, axis not shown) [Example 244, (3S,10R)-3-((1H-pyrazol-1-yl)methyl)-7-((2S,5R)-4-acryloyl-2,5-dimethylpiperazin-1-yl)-9-chloro-10-(2-fluoro-6-hydroxyphenyl)-2H-[1,4]oxazino[2,3,4-ij]quinazolin-5(3H)-one]
% CAF @ 10 μM,1 h: 4.4%

C=CC(=O)N1C[C@H](C)N(c2nc(=O)n3c4c(c(-c5c(O)cccc5F)c(Cl)cc24)OC[C@H]3CN2CCC(F)(F)C2)C[C@H]1C (atropisomer, axis not shown) [Example 222, (3R,10S)-7-((2S,5R)-4-acryloyl-2,5-dimethylpiperazin-1-yl)-9-chloro-3-((3,3-difluoropyrrolidin-1-yl)methyl)-10-(2-fluoro-6-hydroxyphenyl)-2,3-dihydro-5H-[1,4]oxazino[2,3,4-ij]quinazolin-5-one]
% CAF @ 10 μM,1 h: 1.4%

C=CC(=O)N1C[C@H](C)N(c2nc(=O)n3c4c(c(-c5cccc6ccccc56)c(Cl)cc24)OC[C@@H]3CN2CCN(C)CC2)C[C@H]1C (atropisomer, axis not shown) [Example 308, (3S,10S)-7-((2S,5R)-4-acryloyl-2,5-dimethylpiperazin-1-yl)-9-chloro-3-((4-methylpiperazin-1-yl)methyl)-10-(naphthalen-1-yl)-2,3-dihydro-5H-[1,4]oxazino[2,3,4-ij]quinazolin-5-one]
% CAF @ 10 μM,1 h: 22.8%

C=CC(=O)N1C[C@H](C)N(c2nc(=O)n3c4c(c(-c5c(O)cccc5F)c(Cl)cc24)OC[C@H]3CN2CCOCC2)C[C@H]1C (atropisomer, axis not shown) [Example 209, (3R,10S)-7-((2S,5R)-4-acryloyl-2,5-dimethylpiperazin-1-yl)-9-chloro-10-(2-fluoro-6-hydroxyphenyl)-3-(morpholinomethyl)-2,3-dihydro-5H-[1,4]oxazino[2,3,4-ij]quinazolin-5-one]
% CAF @ 10 μM,1 h: 85%

C=CC(=O)N1C[C@H](C)N(c2nc(=O)n3c4c(c(-c5c(C)ccc6[nH]nnc56)ccc24)OCC3)C[C@H]1C [Example 219, 7-((2S,5R)-4-acryloyl-2,5-dimethylpiperazin-1-yl)-10-(5-methyl-1H-benzo[d][1,2,3]triazol-4-yl)-2,3-dihydro-5H-[1,4]oxazino[2,3,4-ij]quinazolin-5-one]
% CAF @ 10 μM,1 h: 0%

C=CC(=O)N1CCN(c2cc(=O)n3c4c(c(-c5c(C)ccc6[nH]nc(C)c56)ccc24)CCC3)CC1 [Example 48, 1-(4-acryloylpiperazin-1-yl)-8-(3,5-dimethyl-1H-indazol-4-yl)-6,7-dihydropyrido[3,2,1-ij]quinolin-3(5H)-one]
CAF: 1

C=CC(=O)N1C[C@H](C)N(c2cc(=O)n3c4c(c(-c5ccc(F)cc5F)c(Cl)cc24)OCC3)C[C@H]1C [Example 44, 7-((2S,5R)-4-acryloyl-2,5-dimethylpiperazin-1-yl)-9-chloro-10-(2,4-difluorophenyl)-2H-[1,4]oxazino[2,3,4-ij]quinolin-5(3H)-one]
CAF: 4.2

C=CC(=O)N1C[C@H](C)N(c2nc(=O)n3c4c(c(-c5ccccc5C(F)(F)F)c(Cl)cc24)OCC3)C[C@H]1C [Example 197, 7-((2S,5R)-4-acryloyl-2,5-dimethylpiperazin-1-yl)-9-chloro-10-(2-(trifluoromethyl)phenyl)-2,3-dihydro-5H-[1,4]oxazino[2,3,4-ij]quinazolin-5-one]
% CAF @ 10 μM,1 h: 0%

Reference: patent publication US12162893B2 (Erasca, Inc., priority 2020, dated 2024)
